Test results: patent publication US6043248A, “Alpha-substituted pyrimidine-thioalkyl and alkylether compounds as inhibitors of viral reverse transcriptase” (priority 1997, dated 2000)

The compounds below were run against T1, P236L viral reverse transcriptase (Human immunodeficiency virus type 1 group M subtype B, UniProt P04585, P823L) (assay: inhibition of viral reverse transcriptase (P236L), cell free assay). Conditions: 30 minutes at 37° C., read-out: IC50 (Table I, P236L).
T1 construct: P236L viral reverse transcriptase is obtained by PNAS 90: 4713-4717 (1993); made in house
Format: biochemical
Description: The utility of the pyrimidine-thioalkyl and alkylether anti-AIDS compounds of Formula IA of this invention can be determined by their ability to inhibit viral reverse transcriptase, an enzyme essential for human immunodeficiency virus replication. This enzyme has characteristics which differentiate it from other known cellular polymerases and it is a unique enzyme which is not found in uninfected cells. Viral reverse transcriptase (Wild Type) is found in extracts from bacterial clones prepared according to the procedure described in AIDS Virus Reverse Transcriptase defined by high level expression in Escherichia coli, EMBO J. 6:3133-3137 (1987). P236L viral reverse transcriptase is obtained by PNAS 90: 4713-4717 (1993). Inhibition of this enzyme is determined in a cell free assay which measures the level of radioactive precursors incorporated into DNA. Extracts prepared according to the procedure of Science, 1125-1129 (1981) are incubated in a mixture of inhibitor, 20 mM dithiothreitol, 60 mM sodium chloride, 0.05% NP-40, 10 mM magnesium chloride, 50 mM Tris pH 8.3, 10 μM [^35 S]-labeled deoxynuleoside-5'-triphosphate, 10 μg/ml RNA template (poly rC or poly rG) and 5 μg/ml DNA primer (oligo dG or oligo dT) for 30 minutes at 37° C. Incorporation of radio-labeled percursor is determined by spotting aliquots of the reaction mixture on DE81 paper, washing the papers to remove unincorporated percursor, drying and determining counts. The results (IC50 means the concentration, in μM of drug, required to inhibit the reverse transcriptase activity (P236L and Wild Type) to the extent of 50%) of various assay(s) are combined and reported as % inhibition and/or IC50 (calculated) in Table I (P236L) and Table II (Wild Type).

Row | SMILES | IC50
1 | Cc1cc(CSc2nc(N)cc(Cl)n2)ncn1 [Example 130, 4-amino-6-chloro-2-[4-(6-methyl)pyrimidinylmethylthio]-pyrimidine] | 800 nM
2 | CCCc1ccnc(CSc2nc(N)cc(Cl)n2)c1 [Example 131, 4-amino-6-chloro-2-[2-(4-propyl)pyridylmethylthio]-pyrimidine] | 50 nM
3 | CC(C)c1ccnc(CSc2nc(N)cc(Cl)n2)c1 [Example 132, 4-amino-6-chloro-2-[2-(4-isopropyl)pyridylmethylthio]-pyrimidine] | 20 nM
4 | CCc1ccc(CSc2nc(N)cc(Cl)n2)nc1 [Example 134, 4-amino-6-chloro-2-[2-(4-ethyl)pyridylmethylthio]-pyrimidine] | 50 nM
5 | CC(C)(O)c1ccnc(CSc2nc(N)cc(Cl)n2)c1 [Example 135] | 100 nM
6 | Nc1cc(Cl)nc(SCc2cc(C3CC3)ccn2)n1 [Example 137, 4-amino-6-chloro-2-[2-(4-cyclopropyl)pyridylmethylthio]-pyrimidine] | 10 nM
7 | Cc1cnc(CSc2nc(N)cc(Cl)n2)cc1C [Example 140, 4-amino-6-chloro-2-[2-(4,5-dimethyl)pyridylmethylthio]-pyrimidine] | 20 nM
8 | Cc1cc(CSc2nc(N)cc(Cl)n2)nc(C)n1 [Example 142, 4-amino-6-chloro-2-[4-(2,6-dimethyl)pyrimidinylmethylthio]-pyrimidine] | 500 nM
9 | Nc1cc(Cl)nc(SCc2cc(N3CCCC3)ccn2)n1 [Example 143, 4-amino-6-chloro-2-[2-(4-pyrrolidino)pyridylmethylthio]-pyrimidine] | 50 nM
10 | Nc1cc(Cl)nc(SCc2ccc(Cl)s2)n1 [Example 144, 4-Amino-6-chloro-2-[(5-chlorothiophen-2-ylmethyl)thio]pyrimidine] | 5000 nM
11 | CCC(C)c1ccnc(CSc2nc(N)cc(Cl)n2)c1 (stereo not shown) [Example 145, 4-amino-6-chloro-2-[2-(4-(2-butyl))pyridylmethylthio]-pyrimidine] | 10 nM
12 | CN(C)c1ccnc(CSc2nc(N)cc(Cl)n2)c1 [Example 146, 4-amino-6-chloro-2-[2-(4-dimethylamino)pyridylmethylthio]-pyrimidine] | 10 nM
13 | Nc1cc(Cl)nc(SCc2cccc[n+]2[O-])n1 [Example 147, 2-[2-(4-amino-6-chloro)pyrimidinylthiomethyl]-pyridine-1-oxide] | 5000 nM
14 | Nc1cc(Cl)nc(SCc2ccoc2)n1 [Example 148, 4-Amino-6-chloro-2-[(furan-3-ylmethyl)thio]pyrimidine] | 10000 nM
15 | Nc1nc(SCc2cc(Cl)ccn2)nc(Cl)c1F [Example 149, 4-amino-6-chloro-5-fluoro-2-[2-(4-chloro)pyridylmethylthio]pyrimidine] | 50 nM
16 | CCC(CC)c1ccnc(CSc2nc(N)cc(Cl)n2)c1 [Example 151, 4-amino-6-chloro-2-[2-(4-(3-pentyl))pyridylmethylthio]-pyrimidine] | 60 nM
17 | Nc1cc(Cl)nc(SCc2cc3ccccc3o2)n1 [Example 153, 4-Amino-6-chloro-2-[(benzofuran-2-ylmethyl)thio]pyrimidine] | 10000 nM
18 | Cc1cc(CSc2nc(N)cc(Cl)n2)nc(N(C)C)c1 [Example 154, 4-amino-6-chloro-2-[2-(6-dimethylamino-4-methyl)pyridylmethylthio]-pyrimidine] | 50 nM
19 | Nc1cc(Cl)nc(SCC2=CCc3ccccc32)n1 [Example 155, 4-amino-6-chloro-2-[(1H-inden-3-ylmethyl)thio]pyrimidine] | 5000 nM
20 | COC(=O)c1ccnc(CSc2nc(N)cc(Cl)n2)c1 [Example 156, 4-amino-6-chloro-2-[2-(4-carbomethoxy)pyridylmethylthio]-pyrimidine] | 100 nM
21 | C=C(C)[C@@H]1CC=C(CSc2nc(N)cc(Cl)n2)CC1 [Example 157, 4-Amino-6-chloro-2-[((S)-(--)perillyl)thio]pyrimidine] | 10000 nM

Row | SMILES | IC50
22 | Nc1cc(Cl)nc(SCc2cc3ccccc3s2)n1 [Example 158, 4-Amino-6-chloro-2-[(benzothiophen-2-ylmethyl)thio]pyrimidine] | 1000 nM
23 | NC(=O)c1ccnc(CSc2nc(N)cc(Cl)n2)c1 [Example 163, 4-amino-6-chloro-2-[2-(4-carboxamido)-pyridylmethylthio]-pyrimidine] | 20000 nM
24 | Nc1cc(Cl)nc(SCc2cc(CO)ccn2)n1 [Example 164, 4-amino-6-chloro-2-[2-(4-hydroxymethyl)-pyridylmethylthio]-pyrimidine] | 1000 nM
25 | Cc1ccnc(CSc2nc(N)c(Br)c(Cl)n2)c1 [Example 165, 4-amino-5-bromo-6-chloro-2-[2-(4-methyl)pyridylmethylthio]-pyrimidine] | 50 nM
26 | CC(C)c1ccnc(CSc2nc(N)c(Br)c(Cl)n2)c1 [Example 166, 4-amino-5-bromo-6-chloro-2-[2-(4-isopropyl)pyridylmethylthio]-pyrimidine] | 20 nM
27 | Nc1cc(Cl)nc(SCc2c(Cl)cccc2Cl)n1 [Example 167, 4-amino-6-chloro-2-(2,6-dichlorophenyl)methylthio-pyrimidine] | 5000 nM
28 | Nc1cc(Cl)nc(SCc2ccc3c(c2)CCO3)n1 [Example 168, 4-Amino-6-chloro-2-[(2,3-dihydrobenzofuran-5-ylmethyl)thio]pyrimidine] | 50 nM
29 | Nc1cc(Cl)nc(SCC2=Cc3ccccc3CC2)n1 [Example 171, 4-Amino-6-chloro-2-[[(3,4-dihydro-1-naphthalen-2-yl)methyl]thio]-pyrimidine] | 1000 nM
30 | Cc1cncc(CSc2nc(N)cc(Cl)n2)n1 [Example 173, 4-Amino-6-chloro-2-[(6-methylpyrazin-2-ylmethyl)thio]pyrimidine] | 10000 nM
31 | Cc1cc(CSc2nc(N)cc(Cl)n2)no1 [Example 174, 4-Amino-6-chloro-2-[(5-methylisoxazol-3-ylmethyl)thio]pyrimidine] | 500 nM
32 | Cc1cnc(CSc2nc(N)cc(Cl)n2)cn1 [Example 175, 4-Amino-6-chloro-2-[(5-methylpyrazin-2-ylmethyl)thio]pyrimidine] | 8000 nM
33 | Cn1ccnc1CSc1nc(N)cc(Cl)n1 [Example 176, 4-Amino-6-chloro-2-[(1-methylimidazol-2-ylmethyl)thio]pyrimidine] | 25000 nM
34 | Nc1cc(Cl)nc(SCc2ccc3ncccc3c2)n1 [Example 178, 4-Amino-6-chloro-2-[(quinolin-6-ylmethyl)thio]pyrimidine] | 500 nM
35 | Nc1cc(Cl)nc(SCc2cnc3ccccc3n2)n1 [Example 179, 4-Amino-6-chloro-2-[(quinoxalin-2-ylmethyl)thio]pyrimidine] | 500 nM
36 | Nc1cc(Cl)nc(SCc2ccnc3ccccc23)n1 [Example 181, 4-Amino-6-chloro-2-[(quinolin-4-ylmethyl)thio]pyrimidine] | 1000 nM
37 | Nc1cc(Cl)nc(SCc2cc3ccccc3cn2)n1 [Example 182, 4-Amino-6-chloro-2-[(isoquinolin-3-ylmethyl)thio]pyrimidine] | 20 nM
38 | Nc1cc(Cl)nc(SCc2cccc3ncccc23)n1 [Example 183, 4-Amino-6-chloro-2-[(quinolin-5-ylmethyl)thio]pyrimidine] | 40 nM
39 | Nc1cc(Cl)nc(SCc2ccc3cccnc3c2)n1 [Example 184, 4-Amino-6-chloro-2-[(quinolin-7-ylmethyl)thio]pyrimidine] | 3000 nM
40 | Nc1cc(Cl)nc(SCc2ccc3c(c2)OCO3)n1 [Example 186, 4-Amino-6-chloro-2-[(piperon-5-ylmethyl)thio]pyrimidine] | 500 nM
41 | Nc1cc(Cl)nc(SCC2=CCCc3ccccc32)n1 [Example 187, 4-Amino-6-chloro-2-[[(3,4-dihydro-1-naphthalenyl)methyl]thio]pyrimidine] | 600 nM
42 | Nc1nc(SCc2cc(Cl)ccn2)nc(Cl)c1F [Example 192] | 20 nM

Same assay, conditions: IC50 (Table I, P236L), 30 minutes at 37° C.

Row | SMILES | IC50
43 | Nc1cc(Cl)nc(SCc2ccc(-c3ccccc3)cn2)n1 [Example 133, 4-amino-6-chloro-2-[2-(5-phenyl)pyridylmethylthio]-pyrimidine] | 1000 nM
44 | Nc1cc(Cl)nc(SCc2cccc3cccnc23)n1 [Example 180, 4-Amino-6-chloro-2-[(quinolin-8-ylmethyl)thio]pyrimidine] | 50 nM
45 | COC(=O)c1ccc(CSc2nc(N)cc(Cl)n2)nc1 [Example 188, 4-amino-6-chloro-2[2-(5-carbomethyoxy)pyridylmethylthio]pyrimidine] | 50000 nM
46 | CNc1cc(C#N)nc(SCc2ccc3ccccc3c2)n1 [Example 288, 6-methylamino-2-(2-naphthylmethyl)thio-4-pyrimidine carbonitrile] | 50000 nM
